# Source: US9902684B2, “Compound isolated from Isodon forrestii var. forrestii and preparation method and applications thereof” (JIANGSU PROVINCE INSTITUTE OF TRADITIONAL CHINESE MEDICINE, priority 2016, dated 2018)
# Residues, ends and D or L forms follow the SMILES beside them. *: point of attachment. Cbz = O=C(OCc1ccccc1)*; CH2F = FC*
# Legend:
# [1] = test system: HepG2 cell; test: Annexin V flow cytometry analysis of apoptosis; format: cell-based, human; conditions: FIG. 5
# Method: (§1) Dissolving Iso A (purity >99%) in DMSO, and preserving stock solution with concentration of 40 mM in −20° C. Detecting the inhibition effects of Iso A in various cells that includes liver cancer cell, breast cancer cell, lung cancer cell, osteosarcoma cell, melanoma cell, cervical cancer cell etc., and in normal human hepatocyte L02, human embryo lung cell HFL1, human mammary epithelial cell MCF 10A. […] Among tested cells, HepG2 cell is the most sensitive to Iso A, thus HepG2 is selected as a model in follow-up experiments.
# [2] = test system: hepatocellular carcinoma cell line HepG2; test: MTT assay, HepG2 cell growth; format: cell-based, human; conditions: various concentrations, 24 hours; FIG. 3
# Method: as §1
# [3] = test system: HepG2 xenograft; test: Murine xenograft tumor model of hepatocellular carcinoma; format: in vivo, BALB/c nude mouse; conditions: 15 mg/kg once daily, 15 days, vs control group
# From the text: • a) Cell line: Human hepatocellular carcinoma cell line HepG2 is bought from the Cell Bank of Chinese Academy of Sciences for Type Culture Collection • b) Animal: 20 BALB/c male nude mouse with weight of (13±2 g), the BALB/c mice is bought from Model Animal Research Center of Nanjing University, the animal is bred under the environment without a special pathogen in the Animal Center of Jiangsu Traditional Chinese Medicine Research Institution [SCXK( ? ) 2002-0001]. • c) Pharmaceutical: Iso A 2. Experiment Method: • a) Make of a murine xenograft model ofepatocellular carcinoma: HepG2 cells in log phase are digested with trypin, and suspended with a final density of 2×10^7 cells/ml. Then, 200 μl (100 μl cells+100 μl matrigel) cell suspension is inoculated into the right subaxillary of nude mice with 1 ml injector. • b) Group and administration of experimental animal: grouping when the tumor becomes 100 mm^3 into 10 per group (same average volume per group, too big or small ones are eliminated). Grouping specifically as followings: (1) Iso A 15 mg/kg dose group, (2) solvent control group (0.5% CMC-Na). […] Antitumor effect is determined by tumor inhibition rate. […]
# [4] = Toxicity assessment in xenograft mice (weight, serum indices, blood routine); format: in vivo, BALB/c nude mouse; conditions: 15 mg/kg
# From the text: • a) Cell line: Human hepatocellular carcinoma cell line HepG2 is bought from the Cell Bank of Chinese Academy of Sciences for Type Culture Collection • b) Animal: 20 BALB/c male nude mouse with weight of (13±2 g), the BALB/c mice is bought from Model Animal Research Center of Nanjing University, the animal is bred under the environment without a special pathogen in the Animal Center of Jiangsu Traditional Chinese Medicine Research Institution [SCXK( ? ) 2002-0001]. • c) Pharmaceutical: Iso A 2. Experiment Method: • a) Make of a murine xenograft model ofepatocellular carcinoma: HepG2 cells in log phase are digested with trypin, and suspended with a final density of 2×10^7 cells/ml. Then, 200 μl (100 μl cells+100 μl matrigel) cell suspension is inoculated into the right subaxillary of nude mice with 1 ml injector. • b) Group and administration of experimental animal: grouping when the tumor becomes 100 mm^3 into 10 per group (same average volume per group, too big or small ones are eliminated). Grouping specifically as followings: (1) Iso A 15 mg/kg dose group, (2) solvent control group (0.5% CMC-Na). Administrate one time every day for total 15 days. • c) Sample selection and index observation: • i. observation for normal state: before drug administration, measure the weight and tumor size (tumor volume V=long diameter×short diameter^2/2) one time every day. Observe the locomotor activity, mental state, hair, breath, diet, manure trait and reaction to outside world of the mice. After ending pharmaceutical interference, the mice are anesthetized and the blood is acquired by cardiac puncture. The serum is got by centrifugation and store in −80° C. After the skin of the tumor growing part on the right axilla of the mice is nipped by forceps, use a surgical scissors to cut the skin for exposing the tumor, then use the surgical scissors to dissect the tumor with blunt dissection and use a scale to weigh the tumor, transplanted tumor and calculate the inhibition rate. Antitumor effect is determined by tumor inhibition rate. Tumor inhibition rate (%)=[1−(average weight of tumor in experimental group/average weight of tumor in control group)]×100% • ii. Detecting apoptosis of tumor tissues with TUNEL staining: according to TUNEL apoptosis detection kit specification of Roche Inc. after fixing frozen tissue section in room temperature. • iii. Blood routine examination for assessing the marrow toxicity of Iso A, analyze ALT, AST, ALP level in plasma for assessing hepatotoxicity of Iso A, and measure the creatinine and urea nitrogen for assessing renal damage.
# Fabricate mice transplanted hepatocellular carcinoma model, and group mice into control group and Iso A (15 mg/kg) administration group at random. Record the weight and tumor size one time every three days and kill the mice after 15-day-administration for detection and analysis of the tumor tissues, blood etc.
# [5] = test system: human normal hepatic cell L02; test: Trypan blue exclusion assay, normal cells; format: cell-based; conditions: various concentrations, 24 hours; FIG. 4
# Method: as §1
# [6] = test system: tumor cells (liver cancer, breast cancer, lung cancer, osteosarcoma, melanoma, cervical cancer cell); test: MTT experiment, growth inhibition of various tumor cells; format: cell-based; conditions: Homo sapiens; all tested tumor cells; FIG. 2
# Method: as §1
# [7] = biological target: T1, Trx1 (Homo sapiens, UniProt P10599); test: Trx1 activity in HepG2 cells (insulin reduction/DTNB); format: cell-based; parameters: endogenous in cells; host or cells: HepG2; conditions: 10-30 μM for 8 hours; relative to 0.5% DMSO control; FIG. 7
# T1 sequence (P10599 1-105): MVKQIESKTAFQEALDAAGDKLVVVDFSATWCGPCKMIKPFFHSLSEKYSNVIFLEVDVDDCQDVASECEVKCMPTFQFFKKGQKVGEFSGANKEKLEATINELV
# Method: (§2) Methods for measuring Trx1 activity in cells or tissue samples: using lysates (20 mM HEPES (pH 7.9), 300 mM NaCl, 100 mM KCl, 10 mM EDTA and 0.1% Nonidet P-40, protease-contained inhibitor) to lyse the cells or tissue samples. Pre-treating 90 μg protein at 37° C. for 15 min by using DTT activation buffer (50 mmol/liter HEPES (pH 7.6), 1 mmol/liter EDTA, 1 mg/ml bovine serum albumin, and 2 mmol/liter dithiothreitol). Then adding 20 μl reaction mixture (200 μl of 1 M HEPES (pH 7.6), 40 μl of 0.2 mol/liter EDTA, 40 μl of NADPH (40 mg/ml)) and 500 μl insulin. Adding 5 μl thioredoxin reductase for initial reaction while adding water of same volume into the control group. Incubate the samples in 37° C. for 20 min, and then add 6 M guanidine hydrochloride of 0.25 ml and 0.4 mg/ml DTNB to terminate reaction. Detecting optical absorption of 412 nm.
# Cultivate human hepatocellular carcinoma cell line HepG2 in vitro culture. […] Calculate the relative activity of Trxl in each group under the condition that negative control activity is 1.
# [8] = test system: HepG2 cells; test: Trypan blue exclusion assay, HepG2; format: cell-based, human; conditions: various concentrations, 24 hours; FIG. 4
# Method: as §1
# [9] = biological target: T1, Trx1; test: Trx1 activity in xenograft tumor tissues; format: in vivo, BALB/c nude mouse; parameters: from tissue; host or cells: HepG2 xenograft tumor from BALB/c nude mice; conditions: 15 mg/kg once daily, 15 days; FIG. 12
# Method: as §2, with “Detecting optical absorption of 412 nm.” left out
# • a) Cell line: Human hepatocellular carcinoma cell line HepG2 is bought from the Cell Bank of Chinese Academy of Sciences for Type Culture Collection • b) Animal: 20 BALB/c male nude mouse with weight of (13±2 g), the BALB/c mice is bought from Model Animal Research Center of Nanjing University, the animal is bred under the environment without a special pathogen in the Animal Center of Jiangsu Traditional Chinese Medicine Research Institution [SCXK( ? ) 2002-0001]. • c) Pharmaceutical: Iso A 2. […] Antitumor effect is determined by tumor inhibition rate. […]
# [10] = biological target: T1, Trx1; test: Mass spectrometry analysis of direct conjugation with Trx1 protein; format: binding; parameters: purchased Sino Biological Inc; conditions: 2 h room temperature, MALDI mass spectrometry; FIG. 8
# Method: Human-derived Trx1 protein (Sino Biological Inc.) is dissolved in distilled water at a 5 mg/ml and stored. In 25 mM Tris-HCl (pH 7.4) buffer, mixi 4 μl Iso A with 140 μl human Trx1 protein to incubate for 2 h in room temperature. Samples after reaction is treated by Shimadzu Biotech Proteome kit for enzymatic hydrolysis with MonoSpin Trypsin, then desalted by MonoSpin® C18 column for mass spectrometry analysis with MALDI 7090 (SHIMADZU).
# [11] = biological target: T1, Trx1; test: In vitro Trx1 activity, Thioredoxin Activity Fluorescent Assay Kit; format: biochemical; parameters: purchased Sino Biological Inc; conditions: read-out: inhibition rate of Trx1 activity
# Method: Trx1 protein was bought from Sino Biological Inc., Trx1 activity detection kit was bought from American Caymen Chemical cooperation.
# The in vitro activity of Trx is assayed using the—Thioredoxin Activity Fluorescent Assay Kit (Caymen Chemical). According to the instructions of the kit 2 μl of Iso A with different concentrations (0.195 μM to 100 μM) is added into 0.02 μM Trx mix, following by adding 5 μl of β-NADPH into each sample to incubate in 37° C. for 30 min. Then, a fluorescent substrate is added and Trx1 activity is was recorded as the emission at 518 nm after 488 nm excitation for 30-60 min, with a Thermo Scientific Varioskan Flash fluorescent microplate reader.
# [12] = test system: human normal hepatic cell line L02; test: MTT assay, normal hepatic cell L02 growth; format: cell-based; conditions: various concentrations, 24 hours; FIG. 3
# Method: as §1
structure (smiles),measurement,setting,value
"COC(=O)C[C@H](NC(=O)[C@H](C)NC(=O)[C@@H](NC(=O)OCc1ccccc1)C(C)C)C(=O)CF [Z-VAD-FMK, reference compound] (Cbz-Val-Ala-Asp(OMe)-CH2F)",effect of pan-caspase inhibitor on apoptosis induced by Iso A,[1]; HepG2,partially inhibits the apoptosis induced by Iso A
"C=C1C(=O)[C@]23C[C@H]1[C@@H](OC(C)=O)[C@H](OC(C)=O)[C@H]2[C@]1(C)C[C@H](OC(C)=O)[C@H](OC(C)=O)C(C)(C)[C@H]1[C@@H](O)C3 [Iso A, Isoforresin A]",inhibition of HepG2 cell growth (MTT),[2],inhibit the growth of HepG2 cell in a concentration-dependent manner
same,Annexin V positive cells (apoptosis),"[1]; HepG2, 10 or 20 μM Iso A, 24 hours",increasement of Annexin V positive cells
same,tumor volume,[3]; FIG. 10,significantly decreased
same,tumor weight,[3]; FIG. 11,significantly decreased
same,"toxic or side effects on marrow, liver and kidney","[4]; 15 days, xenograft murine model",no toxic or side effects
same,ALP level in serum,"[4]; 15 days, FIG. 13",no obvious difference
same,ALT level in serum,"[4]; 15 days, FIG. 13",no obvious difference
same,AST level in serum,"[4]; 15 days, FIG. 13",no obvious difference
same,creatinine level in serum,"[4]; 15 days, FIG. 14",no obvious difference
same,urea nitrogen level in serum,"[4]; 15 days, FIG. 14",no obvious difference
same,body weight of mice,"[4]; during administration, vs control group, FIG. 9",no difference in weight
same,toxicity to normal cells (trypan blue exclusion),[5],obviously not toxic
same,IC50,[6],< 30 µM
same,Trx1 activity in HepG2 cells,[7],significantly reduced
same,cell death of HepG2 cells (trypan blue exclusion),[8],selectively trigger the death of HepG2 cells
same,Trx1 activity in the tumor tissues,[9],significantly decreased
same,direct binding/conjugation with Trx1 protein (Cys 32/35),[10],can directly bind with Trx1 protein
same,inhibition at 2.5 µM,[11],20%
same,inhibition at 5 µM,[11],48.6%
same,inhibition at 10 µM,[11],98%
same,inhibition of L02 cell growth (MTT),[12],no obvious inhibitory effects
